# Experimental data published in the supplement of paper PMC4862054.
# Key:
# Details in all cases: incubation time: 72 h
# MDA-MB-468 [1] = assay: normalised response (% of control), CellTiter-Glo; higher = more viable cells (100 = DMSO, 0 = benzethonium chloride kill control)
# How it was run: (§1)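 Values are normalised signals, each belonging to one concentration of the series. Breast cancer cells (20 µl suspension) were seeded into 384-well plates with compound at 5 concentrations in 10-fold steps over a compound-specific 10,000-fold range and incubated 72 h. Readouts were CellTox Green fluorescence (485/520 nm), then CellTiter-Glo luminescence after 10 min at room temperature, with each plate set to 0.1 % DMSO as 100 and a positive kill control as 0.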
# CAL-120 [2] = assay: as above
# How it was run: as §1
# MDA-MB-436 [3] = assay: as above
# How it was run: as §1
# MDA-MB-231 [4] = assay: as above
# How it was run: as §1
# DU-4475 [5] = assay: as above
# How it was run: as §1
# HCC1937 [6] = assay: as above
# How it was run: as §1
# HCC1599 [7] = assay: as above
# How it was run: as §1
# MFM-223 [8] = assay: as above
# How it was run: as §1
# HCC1143 [9] = assay: as above
# How it was run: as §1
# BT-474 [10] = assay: as above
# How it was run: as §1
# MDA-MB-453 [11] = assay: as above
# How it was run: as §1
# MCF-10A [12] = assay: as above
# How it was run: as §1
# CAL-85-1 [13] = assay: as above
# How it was run: as §1
# HDQ-P1 [14] = assay: as above
# How it was run: as §1
# SK-BR-3 = assay: as above
# How it was run: as §1
# BT-549 [15] = assay: as above
# How it was run: as §1
# Hs578T [16] = assay: as above
# How it was run: as §1
# CAL-51 [17] = assay: as above
# How it was run: as §1
# CAL-148 [18] = assay: as above
# How it was run: as §1
# MDA-MB-468 [19] = assay: normalised response (% of control), CellTox Green; higher = less cell death (100 = DMSO, 0 = benzethonium chloride kill control)
# How it was run: as §1
# CAL-120 [20] = assay: as above
# How it was run: as §1
# MDA-MB-436 [21] = assay: as above
# How it was run: as §1
# MDA-MB-231 [22] = assay: as above
# How it was run: as §1
# DU-4475 [23] = assay: as above
# How it was run: as §1
# HCC1599 [24] = assay: as above
# How it was run: as §1
# MFM-223 [25] = assay: as above
# How it was run: as §1
# HCC1143 [26] = assay: as above
# How it was run: as §1
# BT-474 [27] = assay: as above
# How it was run: as §1
# MDA-MB-453 [28] = assay: as above
# How it was run: as §1
# MCF-10A [29] = assay: as above
# How it was run: as §1
# CAL-85-1 [30] = assay: as above
# How it was run: as §1
# HDQ-P1 [31] = assay: as above
# How it was run: as §1
# BT-549 [32] = assay: as above
# How it was run: as §1
# Hs578T [33] = assay: as above
# How it was run: as §1
# CAL-51 [34] = assay: as above
# How it was run: as §1
# CAL-148 [35] = assay: as above
# How it was run: as §1
# HCC1937 [36] = assay: as above
# How it was run: as §1
smiles,measurement,setting,value
Cc1ccc(C(=O)N(CCCN)[C@@H](c2oc3cc(Cl)ccc3c(=O)c2Cc2ccccc2)C(C)C)cc1 (10 nM),normalised response,MDA-MB-468 [1],90.7%
same,normalised response,CAL-120 [2],102%
same,normalised response,MDA-MB-436 [3],107%
same,normalised response,MDA-MB-231 [4],98.8%
same,normalised response,DU-4475 [5],96.5%
same,normalised response,HCC1937 [6],101%
same,normalised response,HCC1599 [7],100%
same,normalised response,MFM-223 [8],90.2%
same,normalised response,HCC1143 [9],97.1%
same,normalised response,BT-474 [10],97.9%
same,normalised response,MDA-MB-453 [11],94.8%
same,normalised response,MCF-10A [12],103%
same,normalised response,CAL-85-1 [13],101%
same,normalised response,HDQ-P1 [14],103%
same,normalised response,SK-BR-3,92.5%
same,normalised response,BT-549 [15],100%
same,normalised response,Hs578T [16],97.5%
same,normalised response,CAL-51 [17],120%
same,normalised response,CAL-148 [18],91.3%
same,normalised response,MDA-MB-468 [19],111%
same,normalised response,CAL-120 [20],95.5%
same,normalised response,MDA-MB-436 [21],100%
same,normalised response,MDA-MB-231 [22],94.4%
same,normalised response,DU-4475 [23],104%
same,normalised response,HCC1599 [24],91.8%
same,normalised response,MFM-223 [25],101%
same,normalised response,HCC1143 [26],112%
same,normalised response,BT-474 [27],89.8%
same,normalised response,MDA-MB-453 [28],102%
same,normalised response,MCF-10A [29],112%
same,normalised response,CAL-85-1 [30],108%
same,normalised response,HDQ-P1 [31],85.7%
same,normalised response,BT-549 [32],88%
same,normalised response,Hs578T [33],103%
same,normalised response,CAL-51 [34],108%
same,normalised response,CAL-148 [35],90.8%
O=C(O)c1ccc(-c2c[nH]c3ncc(-c4ccccc4)cc23)cc1C1CCCC1 (1000 nM),normalised response,MDA-MB-468 [1],93.6%
same,normalised response,CAL-120 [2],102%
same,normalised response,MDA-MB-436 [3],103%
same,normalised response,MDA-MB-231 [4],92.4%
same,normalised response,DU-4475 [5],91.4%
same,normalised response,HCC1937 [6],97%
same,normalised response,HCC1599 [7],102%
same,normalised response,MFM-223 [8],95.6%
same,normalised response,HCC1143 [9],101%
same,normalised response,BT-474 [10],89.9%
same,normalised response,MDA-MB-453 [11],96.8%
same,normalised response,MCF-10A [12],100%
same,normalised response,CAL-85-1 [13],99.2%
same,normalised response,HDQ-P1 [14],105%
same,normalised response,SK-BR-3,90.2%
same,normalised response,BT-549 [15],100%
same,normalised response,Hs578T [16],94.1%
same,normalised response,CAL-51 [17],105%
same,normalised response,CAL-148 [18],95.6%
same,normalised response,CAL-120 [20],98.4%
same,normalised response,MDA-MB-436 [21],85.1%
same,normalised response,MDA-MB-231 [22],86.1%
same,normalised response,DU-4475 [23],96.3%
same,normalised response,HCC1937 [36],100%
same,normalised response,HCC1599 [24],90.9%
same,normalised response,MFM-223 [25],93.1%
same,normalised response,HCC1143 [26],96.2%
same,normalised response,BT-474 [27],95.8%
same,normalised response,MDA-MB-453 [28],96.7%
same,normalised response,MCF-10A [29],103%
same,normalised response,CAL-85-1 [30],108%
same,normalised response,HDQ-P1 [31],109%
same,normalised response,BT-549 [32],92.9%
same,normalised response,Hs578T [33],92.2%
same,normalised response,CAL-51 [34],93.6%
C[C@@H](Oc1cc(-c2cnn(C3CCNCC3)c2)cnc1N)c1c(Cl)ccc(F)c1Cl [Crizotinib] (100 nM),normalised response,MDA-MB-468 [1],96.1%
same,normalised response,CAL-120 [2],100%
same,normalised response,MDA-MB-436 [3],102%
same,normalised response,MDA-MB-231 [4],98.6%
same,normalised response,DU-4475 [5],99.2%
same,normalised response,HCC1937 [6],98.5%
same,normalised response,HCC1599 [7],114%
same,normalised response,MFM-223 [8],97.1%
same,normalised response,HCC1143 [9],100%
same,normalised response,BT-474 [10],102%
same,normalised response,MDA-MB-453 [11],91.7%
same,normalised response,MCF-10A [12],107%
same,normalised response,CAL-85-1 [13],116%
same,normalised response,HDQ-P1 [14],98.8%
same,normalised response,SK-BR-3,92.4%
same,normalised response,BT-549 [15],90.4%
same,normalised response,Hs578T [16],99.7%
same,normalised response,CAL-51 [17],104%
same,normalised response,CAL-148 [18],95.6%
same,normalised response,MDA-MB-468 [19],122%
same,normalised response,CAL-120 [20],104%
same,normalised response,MDA-MB-436 [21],80.2%
same,normalised response,MDA-MB-231 [22],123%
same,normalised response,DU-4475 [23],105%
same,normalised response,HCC1937 [36],79.2%
same,normalised response,HCC1599 [24],104%
same,normalised response,MFM-223 [25],99.2%
same,normalised response,HCC1143 [26],114%
same,normalised response,BT-474 [27],104%
same,normalised response,MDA-MB-453 [28],90.9%
same,normalised response,MCF-10A [29],105%
same,normalised response,CAL-85-1 [30],93.4%
same,normalised response,HDQ-P1 [31],95.8%
same,normalised response,BT-549 [32],140%
same,normalised response,CAL-51 [34],111%
same,normalised response,CAL-148 [35],106%
C[C@]12CC[C@@H]3c4ccc(O)cc4C[C@@H](CCCCCCCCC[S+]([O-])CCCC(F)(F)C(F)(F)F)[C@H]3[C@@H]1CC[C@@H]2O (some centres not stated) [Fulvestrant] (100 nM),normalised response,MDA-MB-468 [1],104%
same,normalised response,CAL-120 [2],100%
same,normalised response,MDA-MB-436 [3],108%
same,normalised response,MDA-MB-231 [4],104%
same,normalised response,DU-4475 [5],104%
same,normalised response,HCC1937 [6],105%
same,normalised response,HCC1599 [7],110%
same,normalised response,MFM-223 [8],103%
same,normalised response,HCC1143 [9],99.3%
same,normalised response,BT-474 [10],104%
same,normalised response,MDA-MB-453 [11],109%
same,normalised response,MCF-10A [12],109%
same,normalised response,CAL-85-1 [13],99.1%
same,normalised response,HDQ-P1 [14],104%
same,normalised response,SK-BR-3,107%
same,normalised response,BT-549 [15],108%
same,normalised response,Hs578T [16],106%
same,normalised response,CAL-51 [17],114%
same,normalised response,CAL-148 [18],97.4%
same,normalised response,CAL-120 [20],100%
same,normalised response,MDA-MB-436 [21],108%
same,normalised response,MDA-MB-231 [22],114%
same,normalised response,DU-4475 [23],101%
same,normalised response,HCC1937 [36],106%
same,normalised response,HCC1599 [24],101%
same,normalised response,MFM-223 [25],90.7%
same,normalised response,HCC1143 [26],111%
same,normalised response,BT-474 [27],102%
same,normalised response,MDA-MB-453 [28],87.5%
same,normalised response,MCF-10A [29],105%
same,normalised response,CAL-85-1 [30],108%
same,normalised response,BT-549 [32],106%
same,normalised response,Hs578T [33],103%
same,normalised response,CAL-51 [34],113%
same,normalised response,CAL-148 [35],100%
